The values below come from US7173129B2, “Sulfonamide-substituted chalcone derivatives and their use to treat diseases” (Athero Genics, Inc., priority 2003, dated 2007).

SMILES strings stand for the structures. Where only a bound is given, the exact number is not on record here.

In one data set the test system is VCAM-1. The data set is described as follows: In Vitro VCAM-1 Assay (TNF-α stimulated endothelial cells, cell-surface ELISA). It counts as cell-based. The following applies: Homo sapiens, Endothelial cell, 16 h, primary human aortic (HAEC) or pulmonary (HPAEC) endothelial cells, TNF-α 1 ng/ml, approximately 16 hours, ELISA OD 450 nm. The protocol:
Cell Culture and compound dosing: Cultured primary human aortic (HAEC) or pulmonary (HPAEC) endothelial cells were obtained from Clonetics, Inc., and were used below passage 9. Cells were seeded in 96 well plates such that they would reach 90–95% confluency by the following day. On the following day the cells were stimulated with TNF-α (1 ng/ml) in the presence or absence of compounds dissolved in DMSO such that the final concentration of DMSO is 0.25% or less. To establish a dose curve for each compound, four concentrations in 2- to 5-fold increments were used. Cells were exposed to TNF-α and compounds for approximately 16 hours. The next day the cells were examined under microscope to score for visual signs of toxicity or cell stress.
Following 16 hr exposure to TNF-α and compound the media was discarded and the cells were washed once with Hanks Balanced Salt Solution (HBSS)/Phosphate buffered saline (PBS) (1:1). Primary antibodies against VCAM-1 (0.25 μg/ml in HBSS/PBS+5% FBS) were added and incubated for 30–60 minutes at 37° C. Cells were washed with HBSS/PBS three times, and secondary antibody Horse Radish Peroxidase (HRP)-conjugated goat anti-mouse IgG (1:500 in HBSS/PBS+5% FBS) were added and incubated for 30 minutes at 37° C. Cells were washed with HBSS/PBS four time and TMB substrate were added and incubated at room temperature in the dark until there was adequate development of blue color. The length of time of incubation was typically 5–15 minutes. 2N sulfuric acid was added to stop the color development and the data was collected by reading the absorbance on a BioRad ELISA plate reader at OD 450 nm. The results are expressed as IC50 values (the concentration (micromolar) of compound required to inhibit 50% of the maximal response of the control sample stimulated by TNF-α only).

On to `COc1cc(OC)c(-c2cc3ccccc3n2C)cc1/C=C/C(=O)c1ccc(S(=O)(=O)N(C)C)cc1` [Example 31, 4-{3E-[2,4-Dimethoxy-5-(1-methyl-1H-indol-2-yl)phenyl]acryloyl}-N,N-dimethylbenzenesulfonamide], for which the melting point fell in the range of 120 to 122 °C. In addition, the IC50 in the data set on VCAM-1 is < 10 µM.

In turn, `COc1cc(OC)c(N2CCCC2)cc1/C=C/C(=O)c1ccc(S(=O)(=O)NCc2ccccn2)cc1` [Example 53, 4-[3E-(2,4-Dimethoxy-5-pyrrolidin-1-ylphenyl)acryloyl]-N-pyridin-2-ylmethylbenzenesulfonamide] yielded a melting point of 112 to 116 °C. In addition, the IC50 in the data set on VCAM-1 is < 5 µM.

`COc1cc(OC)c(-c2cc3ccccc3[nH]2)cc1/C=C/C(=O)c1ccc(S(=O)(=O)N(C)C)cc1` [Example 32, 4-{3E-[5-(1H-Indol-2-yl)-2,4-dimethoxyphenyl]acryloyl}-N,N-dimethylbenzenesulfonamide] gave a melting point of 158 to 162 °C. In the data set with VCAM-1, the IC50 was < 5 µM.

`COc1cc(OC)c(N2CCCC2)cc1/C=C/C(=O)c1ccc(S(=O)(=O)NCCCN2CCN(C)CC2)cc1` [Example 55, 4-[3E-(2,4-Dimethoxy-5-pyrrolidin-1-ylphenyl)acryloyl]-N-[3-(4-methyl-piperazin-1-yl)propyl]benzenesulfonamide] registered a melting point of 64 to 68 °C. Besides, in the data set with VCAM-1, the IC50 is > 10 µM.

In turn, `COc1cc(OCCCO)c(/C=C/C(=O)c2ccc(S(=O)(=O)Nc3cc(C)on3)cc2)cc1-c1cccs1` [Example 39, 4-{3E-[2-(3-Hydroxy-propoxy)-4-methoxy-5-thien-2-ylphenyl]acryloyl}-N-(5-methylisoxazol-3-yl)benzenesulfonamide] came in with a melting point of 178 to 182 °C. The IC50 in the data set with VCAM-1 was < 5 µM.

As for `COc1cc(OC)c(-c2cc3ccccc3[nH]2)cc1/C=C/C(=O)c1ccc(S(=O)(=O)NC(C)=O)cc1` [Example 42, N-Acetyl-4-{3E-[5-(1H-indol-2-yl)-2,4-dimethoxyphenyl]acryloyl}benzenesulfonamide], the melting point is 218 to 220 °C. Further, the IC50 with VCAM-1 is > 10 µM.

Regarding `COc1cc(OC)c(N2CCCC2)cc1/C=C/C(=O)c1ccc(S(=O)(=O)NCC(=O)O)cc1` [Example 56, {4-[3E-(2,4-Dimethoxy-5-pyrrolidin-1-ylphenyl)acryloyl]benzenesulfonylamino}acetic acid], the melting point lay in the range of 155 to 158 °C. Further, the IC50 in the data set on VCAM-1 was > 10 µM.

Consider `COc1cc(OC)c(-c2cc3ccccc3[nH]2)cc1/C=C/C(=O)c1ccc(S(=O)(=O)NC(=O)C(C)C)cc1` [Example 35, 4-{3E-[5-(1H-Indol-2-yl)-2,4-dimethoxyphenyl]acryloyl}-N-isobutyrylbenzenesulfonamide], for which the melting point was 243 to 245 °C (dec.). Further, in the data set on VCAM-1, the IC50 is < 5 µM.

In turn, `COc1cc(OC)c(-c2cccs2)cc1/C=C/C(=O)c1ccc(S(=O)(=O)Nc2ccon2)cc1` [Example 7, 4-[3E-(2,4-Dimethoxy-5-thien-2-ylphenyl)acryloyl]-N-isoxazol-3-ylbenzenesulfonamide] showed a melting point of 198 to 199 °C. Besides, the half-maximal inhibitory concentration (IC50) in the data set on VCAM-1 was < 5 µM.

For the compound `COc1cc(OC)c(-c2cccs2)cc1/C=C/C(=O)c1ccc(S(=O)(=O)Nc2ccccn2)cc1` [Example 5, 4-[3E-(2,4-Dimethoxy-5-thien-2-ylphenyl)acryloyl]-N-pyridin-2-ylbenzenesulfonamide], the melting point fell in the range of 141 to 143 °C. Besides, the IC50 in the data set on VCAM-1 was < 5 µM.

`COc1cc(OC)c(-c2cc3ccccc3[nH]2)cc1/C=C/C(=O)c1ccc(S(=O)(=O)NCC(=O)O)cc1` [Example 51, (4-{3E-[5-(1H-Indol-2-yl)-2,4-dimethoxyphenyl]acryloyl}benzenesulfonylamino)acetic acid] came in with a melting point of 189 to 190 °C. In the data set with VCAM-1, the IC50 is > 10 µM.
